Measurements: PubChem BioAssay AID284 (DTP/NCI, 2004)
Where “and” joins values, the source holds several entries; their conditions need not be identical. Identical values can stand only once. Inconclusive results and toxic doses are left out.

System: BDF1 mice, L1210/MTX-resistant leukemia ip, survival T/C
Experiment: NCI In Vivo Anticancer Drug Screen. Data for tumor model L1210 Leukemia resistant to Methotrexate; NSC 740 (intraperitoneal) in B6D2F1 (BDF1) mice
Conditions: endpoint: mean survival time, higher = longer survival
Procedure: The antitumor activity of compounds was measured in mice bearing transplantable tumors. Survival or tumor size were measured and the results are expressed as the measurement made in the treated group (T) divided by the measurement made in the vehicle treated control group (C). The tumor model used in this assay is L1210 Leukemia resistant to Methotrexate; NSC 740 (intraperitoneal) in B6D2F1 (BDF1) mice

[1] = dose: 12.5 mg/kg/injection, schedule: Q01DX010 (sc), vehicle: steriod suspending solution
[2] = dose: 25.0 mg/kg/injection, schedule: Q01DX010 (sc), vehicle: steriod suspending solution
[3] = dose: 50.0 mg/kg/injection, schedule: Q01DX010 (sc), vehicle: steriod suspending solution
[4] = dose: 100.0 mg/kg/injection, schedule: Q01DX010 (sc), vehicle: steriod suspending solution
[5] = dose: 6.25 mg/kg/injection, schedule: Q01DX010 (ip), vehicle: saline
[6] = dose: 12.5 mg/kg/injection, schedule: Q01DX010 (ip), vehicle: saline
[7] = dose: 50.0 mg/kg/injection, schedule: Q01DX Z (ip), vehicle: saline
[8] = dose: 1.6 mg/kg/injection, schedule: Q01DX Z (ip), vehicle: methylcellulose (MC)
[9] = dose: 3.2 mg/kg/injection, schedule: Q01DX Z (ip), vehicle: methylcellulose (MC)

## Cc1c(O)ccc(=O)n1O
dose: 49.0 mg/kg/injection, schedule: Q01DX Z (ip), vehicle: other
  T/C: 98 % of control
dose: 73.0 mg/kg/injection, schedule: Q01DX Z (ip), vehicle: other
  T/C: 86 % of control
dose: 110.0 mg/kg/injection, schedule: Q01DX Z (ip), vehicle: other
  T/C: 114 % of control
dose: 165.0 mg/kg/injection, schedule: Q01DX Z (ip), vehicle: other
  T/C: 110 % of control
dose: 247.0 mg/kg/injection, schedule: Q01DX Z (ip), vehicle: other
  T/C: 96 % of control

## C[C@]12C=CC(=O)C=C1CC[C@@H]1[C@@H]2[C@@H](O)C[C@@]2(C)[C@H]1CC[C@]2(O)C(=O)CO
[1]
  T/C: 88 % of control
[2]
  T/C: 99 % of control
[3]
  T/C: 86 % of control
[4]
  T/C: 90 % of control

## C1CN1c1nc(N2CC2)nc(N2CC2)n1
dose: 2.0 mg/kg/injection, schedule: Q01DX Z (ip), vehicle: saline
  T/C: 93 % of control
dose: 4.0 mg/kg/injection, schedule: Q01DX Z (ip), vehicle: saline
  T/C: 93 % of control
dose: 32.0 micrograms/kg/injection, schedule: Q01DX Z (ip), vehicle: saline
  T/C: 90 % of control and 100 % of control
dose: 63.0 micrograms/kg/injection, schedule: Q01DX Z (ip), vehicle: saline
  T/C: 98 % of control
dose: 125.0 micrograms/kg/injection, schedule: Q01DX Z (ip), vehicle: saline
  T/C: 87 % of control
dose: 250.0 micrograms/kg/injection, schedule: Q01DX Z (ip), vehicle: saline
  T/C: 98 % of control

## Nc1nc2n[nH]nc2c(=O)[nH]1
dose: 25.0 mg/kg/injection, schedule: Q01DX010 (ip), vehicle: alkali diluted with saline
  T/C: 92 % of control
dose: 25.0 mg/kg/injection, schedule: Q01DX Z (ip), vehicle: water
  T/C: 120 % of control
dose: 50.0 mg/kg/injection, schedule: Q01DX010 (ip), vehicle: alkali diluted with saline
  T/C: 94 % of control and 99 % of control
dose: 50.0 mg/kg/injection, schedule: Q01DX Z (ip), vehicle: other
  T/C: 106 % of control
dose: 50.0 mg/kg/injection, schedule: Q01DX Z (ip), vehicle: water
  T/C: 120 % of control
dose: 100.0 mg/kg/injection, schedule: Q01DX010 (ip), vehicle: alkali diluted with saline
  T/C: 90 % of control and 91 % of control
dose: 100.0 mg/kg/injection, schedule: Q01DX Z (ip), vehicle: other
  T/C: 101 % of control
dose: 200.0 mg/kg/injection, schedule: Q01DX010 (ip), vehicle: alkali diluted with saline
  T/C: 88 % of control and 98 % of control
dose: 200.0 mg/kg/injection, schedule: Q01DX Z (ip), vehicle: water
  T/C: 107 % of control
dose: 350.0 mg/kg/injection, schedule: Q01DX Z (ip), vehicle: water
  T/C: 94 % of control

## OCC1OC(n2cnc3c(=S)nc[nH]c32)C(O)C1O (configuration not stated)
dose: 20.0 mg/kg/injection, schedule: Q01DX010 (ip), vehicle: saline
  T/C: 101 % of control and 102 % of control
dose: 40.0 mg/kg/injection, schedule: Q01DX010 (ip), vehicle: saline
  T/C: 91 % of control and 101 % of control
dose: 80.0 mg/kg/injection, schedule: Q01DX010 (ip), vehicle: saline
  T/C: 98 % of control
dose: 160.0 mg/kg/injection, schedule: Q01DX010 (ip), vehicle: saline
  T/C: 88 % of control and 93 % of control

## CS(=O)(=O)OCCCCOS(C)(=O)=O
dose: 0.38 mg/kg/injection, schedule: Q01DX Z (ip), vehicle: methylcellulose (MC)
  T/C: 88 % of control and 105 % of control
dose: 0.75 mg/kg/injection, schedule: Q01DX Z (ip), vehicle: methylcellulose (MC)
  T/C: 93 % of control and 97 % of control
[5]
  T/C: 97 % of control
[6]
  T/C: 92 % of control and 93 % of control
dose: 12.5 mg/kg/injection, schedule: Q01DX Z (ip), vehicle: carboxymethylcellulose (CMC)
  T/C: 106 % of control
dose: 25.0 mg/kg/injection, schedule: Q01DX010 (ip), vehicle: saline
  T/C: 91 % of control
dose: 50.0 mg/kg/injection, schedule: Q01DX010 (ip), vehicle: saline
  T/C: 102 % of control

## CN(C)c1ccc(/C=C\c2ccnc3ccccc23)cc1
dose: 1.5 mg/kg/injection, schedule: Q01DX010 (ip), vehicle: saline
  T/C: 97 % of control
dose: 3.0 mg/kg/injection, schedule: Q01DX010 (ip), vehicle: saline
  T/C: 103 % of control
dose: 6.0 mg/kg/injection, schedule: Q01DX010 (ip), vehicle: saline
  T/C: 99 % of control

## CN(N=O)C(N)=O
dose: 5.0 mg/kg/injection, schedule: Q01DX010 (ip), vehicle: saline
  T/C: 122 % of control
dose: 12.5 mg/kg/injection, schedule: Q01DX Z (ip), vehicle: saline
  T/C: 105 % of control
dose: 25.0 mg/kg/injection, schedule: Q01DX Z (ip), vehicle: saline
  T/C: 101 % of control
[7]
  T/C: 103 % of control

## O=C(CCBr)N1CCN(C(=O)CCBr)CC1
[8]
  T/C: 86 % of control
[9]
  T/C: 90 % of control
dose: 6.3 mg/kg/injection, schedule: Q01DX Z (ip), vehicle: methylcellulose (MC)
  T/C: 100 % of control

## Nc1nc(F)nc2c1ncn2C1OC(CO)C(O)C1O (configuration not stated)
dose: 0.25 mg/kg/injection, schedule: Q01DX Z (ip), vehicle: saline
  T/C: 122 % of control
dose: 0.75 mg/kg/injection, schedule: Q01DX Z (ip), vehicle: saline
  T/C: 115 % of control
dose: 1.5 mg/kg/injection, schedule: Q01DX Z (ip), vehicle: saline
  T/C: 108 % of control
dose: 3.0 mg/kg/injection, schedule: Q01DX Z (ip), vehicle: saline
  T/C: 104 % of control
dose: 6.0 mg/kg/injection, schedule: Q01DX Z (ip), vehicle: saline
  T/C: 86 % of control
dose: 25.0 micrograms/kg/injection, schedule: Q01DX Z (ip), vehicle: saline
  T/C: 91 % of control
dose: 50.0 micrograms/kg/injection, schedule: Q01DX Z (ip), vehicle: saline
  T/C: 92 % of control
dose: 100.0 micrograms/kg/injection, schedule: Q01DX Z (ip), vehicle: saline
  T/C: 100 % of control
dose: 210.0 micrograms/kg/injection, schedule: Q01DX Z (ip), vehicle: saline
  T/C: 86 % of control

## Nc1nc(=S)c2ncn(C3OC(CO)C(O)C3O)c2[nH]1 (configuration not stated)
dose: 0.22 mg/kg/injection, schedule: Q01DX Z (ip), vehicle: carboxymethylcellulose (CMC)
  T/C: 88 % of control
dose: 0.45 mg/kg/injection, schedule: Q01DX Z (ip), vehicle: carboxymethylcellulose (CMC)
  T/C: 88 % of control
dose: 1.8 mg/kg/injection, schedule: Q01DX Z (ip), vehicle: carboxymethylcellulose (CMC)
  T/C: 102 % of control

## CS(=O)(=O)OCCCl
dose: 7.5 mg/kg/injection, schedule: Q01DX Z (ip), vehicle: saline
  T/C: 107 % of control
dose: 10.0 mg/kg/injection, schedule: Q01DX Z (ip), vehicle: saline
  T/C: 111 % of control
dose: 15.0 mg/kg/injection, schedule: Q01DX Z (ip), vehicle: saline
  T/C: 109 % of control
dose: 20.0 mg/kg/injection, schedule: Q01DX Z (ip), vehicle: saline
  T/C: 111 % of control
[7]
  T/C: 86 % of control

## CC(=O)O[C@]1(C(C)=O)CC[C@H]2[C@@H]3C[C@H](C)C4=CC(=O)C=C[C@]4(C)[C@@]3(F)[C@@H](O)C[C@@]21C
dose: 0.62 mg/kg/injection, schedule: Q01DX Z (sc), vehicle: steriod suspending solution
  T/C: 96 % of control
dose: 1.25 mg/kg/injection, schedule: Q01DX Z (sc), vehicle: steriod suspending solution
  T/C: 97 % of control
dose: 2.5 mg/kg/injection, schedule: Q01DX Z (sc), vehicle: steriod suspending solution
  T/C: 100 % of control
dose: 5.0 mg/kg/injection, schedule: Q01DX Z (sc), vehicle: steriod suspending solution
  T/C: 101 % of control
[1]
  T/C: 101 % of control
[2]
  T/C: 100 % of control
dose: 37.5 mg/kg/injection, schedule: Q01DX Z (sc), vehicle: steriod suspending solution
  T/C: 150 % of control
[3]
  T/C: 88 % of control
[4]
  T/C: 88 % of control

## CCCNc1ncnc2[nH]ncc12
dose: 3.13 mg/kg/injection, schedule: Q01DX010 (ip), vehicle: saline
  T/C: 90 % of control and 91 % of control
[5]
  T/C: 100 % of control and 102 % of control
[6]
  T/C: 86 % of control and 97 % of control

## O=c1[nH]c(=O)n(C2CC(O)C(CO)O2)cc1Br (configuration not stated)
dose: 3.75 mg/kg/injection, schedule: Q01DX Z (ip), vehicle: carboxymethylcellulose (CMC)
  T/C: 93 % of control
dose: 7.5 mg/kg/injection, schedule: Q01DX Z (ip), vehicle: carboxymethylcellulose (CMC)
  T/C: 120 % of control
dose: 15.0 mg/kg/injection, schedule: Q01DX Z (ip), vehicle: carboxymethylcellulose (CMC)
  T/C: 113 % of control
dose: 30.0 mg/kg/injection, schedule: Q01DX Z (ip), vehicle: carboxymethylcellulose (CMC)
  T/C: 104 % of control

## O=C1N(Cl)C(=O)C(c2ccc(Cl)cc2)(c2ccc(Cl)cc2)N1Cl
dose: 0.8 mg/kg/injection, schedule: Q01DX Z (ip), vehicle: methylcellulose (MC)
  T/C: 90 % of control
[8]
  T/C: 90 % of control
[9]
  T/C: 86 % of control and 98 % of control
